Converted amounts (≈) assume the structure as drawn.
System: Crotalus adamanteus
Test: Inhibition of Crotalus adamanteus venom PLA2

## CCCCCCCCCCCCCCCCCCCC[C@@H](O)C(=O)N[C@@H](CO)[C@H](O)[C@H](O)CCCCCCCCCC(C)C
  ED50: 100 µg/mL (≈ 159 µM)

From ChEMBL document CHEMBL1142629, “New lipids from the tunicate Cystodytes cf. dellechiajei, as PLA2 inhibitors” (J Nat Prod, 2000)
